# Experimental data published in patent US9265773B2, “Tetracyclic heterocycle compounds and methods of use thereof for the treatment of viral diseases” (priority 2011, dated 2016).
# pIC50: −log10 of the molar value.
# Experiments:
# HCV replicon genotype 1a = assay: microbe, parasite or virus in culture; format: cell-based; conditions: genotype 1a replicon cells, incubated 96 hours, NS3/4A ELISA readout
# HCV replicon genotype 1b = assay: microbe, parasite or virus in culture; format: cell-based; conditions: genotype 1b replicon cells, incubated 96 hours, NS3/4A ELISA readout
Structure (SMILES),pIC50 (HCV replicon genotype 1a),pIC50 (HCV replicon genotype 1b),"pIC50 (HCV replicon genotype 1a; Hepatitis C virus, 96 h)","pIC50 (HCV replicon genotype 1b; Hepatitis C virus, 96 h)"
CNC(=O)c1c(-c2ccc(F)cc2)oc2cc(N(C)S(C)(=O)=O)c(-c3cc4c(cn3)OC(CO)n3c-4cc4c(F)cccc43)cc12 (stereo not shown) [Compound 89],8.96,9.05,,
"CNC(=O)c1c(-c2ccc(F)cc2)oc2cc(N(C)S(C)(=O)=O)c(-c3ccc4c(n3)-c3cc5c(F)cccc5n3C(CNCC(=O)O)O4)cc12 (stereo not shown) [Compound 116, 2-(((11-fluoro-2-(2-(4-fluorophenyl)-3-(methylcarbamoyl)-6-(N-methylmethylsulfonamido)benzofuran-5-yl)-6H-pyrido[2′,3′:5,6][1,3]oxazino[3,4-a]indol-6-yl)methyl)amino)acetic acid]",,,7.28,8.03
"CNC(=O)c1c(-c2ccc(F)cc2)oc2cc(N(C)S(C)(=O)=O)c(-c3ccc4c(c3)-c3cc5ccccc5n3CC(F)CO4)cc12 (stereo not shown) [Compound 76, 5-(7-fluoro-7,8-dihydro-6H-benzo[2,3][1,5]oxazocino[5,4-a]indol-2-yl)-2-(4-fluorophenyl)-N-methyl-6-(N-methylmethylsulfonamido)benzofuran-3-carboxamide]",,,8.35,8.24
"CN(c1cc2oc(-c3ccc(F)cc3)c(C(=O)NCCO)c2cc1-c1ccc2c(n1)-c1cc3c(F)cccc3n1CO2)S(C)(=O)=O [Compound 151, 5-(11-fluoro-6H-pyrido[2′,3′:5,6][1,3]oxazino[3,4-a]indol-2-yl)-2-(4-fluorophenyl)-N-(2-hydroxyethyl)-6-(N-methylmethylsulfonamido)benzofuran-3-carboxamide]",,,8.37,8.23
CNC(=O)c1c(-c2ccc(F)cc2)oc2cc(N(C)S(C)(=O)=O)c(-c3ccc4c(n3)-c3cc5c(F)cccc5n3C(CNC(=O)[C@@H]3CCCN3C(=O)OC)O4)cc12 (stereo partly shown) [Compound 126],8.57,8.85,,
CNC(=O)c1c(-c2ccc(F)cc2)oc2cc(N(C)S(C)(=O)=O)c(-c3ccc4c(c3)-c3cc5ccccc5n3CC(NCCN3CCOCC3)CO4)cc12 (stereo not shown) [Compound 83],,,7.82,7.92
CNC(=O)c1c(-c2ccc(F)cc2)oc2cc(N(C)S(C)(=O)=O)c(-c3ccc4c(n3)-c3cc5c(C#N)nccc5n3CO4)cc12 [Compound 47],,,8.92,8.74
CCOC(=O)C(C)NCC1Oc2ccc(-c3cc4c(C(=O)NC)c(-c5ccc(F)cc5)oc4cc3N(C)S(C)(=O)=O)nc2-c2cc3c(F)cccc3n21 (stereo not shown) [Compound 118],,,7.72,8.40
"CNC(=O)c1c(-c2ccc(F)cc2)oc2cc(N3CCNC3=O)c(-c3ccc4c(n3)-c3cc5c(F)cccc5n3CO4)cc12 [Compound 177, 5-(11-fluoro-6H-pyrido[2′,3′:5,6][1,3]oxazino[3,4-a]indol-2-yl)-2-(4-fluorophenyl)-N-methyl-6-(2-oxoimidazohdin-1-yl)benzofuran-3-carboxamide]",,,8.34,8.40
"CNC(=O)c1c(-c2ccc(F)cc2)oc2cc(N(C)S(C)(=O)=O)c(-c3ccc4c(c3)-c3nc5ccccn5c3CCO4)cc12 [Compound 145, 5-(6,7-dihydrobenzo[2′,3′]oxepino[4′,5′:4,5]imidazo[1,2-a]pyridin-2-yl)-2-(4-fluorophenyl)-N-methyl-6-(N-methylmethylsulfonamido)benzofuran-3-carboxamide]",,,8.28,8.57
"CNC(=O)c1c(-c2ccc(F)cc2)oc2cc(N(C)S(C)(=O)=O)c(-c3cnc4c(c3)-c3nc5ccccn5c3CO4)cc12 [Compound 144, 2-(4-fluorophenyl)-N-methyl-6-[methyl(methylsulfonyl)amino]-5-(6H pyrido[1″,2″:1′,2′]imidazo[4′,5′:4,5]pyrano[2,3-b]pyridin-2-yl)-1-benzofuran-3-carboxamide]",,,8.54,8.72
CNC(=O)c1c(-c2ccc(F)cc2)oc2cc(N(CC3CC3)S(C)(=O)=O)c(-c3ccc4c(n3)-c3cc5c(F)cccc5n3CO4)cc12 [Compound 200],,,7.85,7.66
CNC(=O)c1c(-c2ccc(F)cc2)oc2cc(N(CCCF)S(C)(=O)=O)c(-c3ccc4c(n3)-c3cc5c(C#N)cccc5n3CO4)cc12 [Compound 194],,,8.72,8.64
CNC(=O)c1c(-c2ccc(F)cc2)oc2cc(N(CCC3(O)CC3)S(C)(=O)=O)c(-c3ccc4c(n3)-c3cc5c(F)cccc5n3CO4)cc12 [Compound 204],,,8.09,7.72
CNC(=O)c1c(-c2ccc(F)cc2)oc2cc(N(CCCF)S(C)(=O)=O)c(-c3ccc4c(n3)-c3cc5ccccc5n3CO4)cc12 [Compound 187],,,8.12,8.03
CNC(=O)c1c(-c2ccc(F)cc2)oc2cc(N(C)S(C)(=O)=O)c(-c3ccc4c(c3)-c3nc5cccc(F)c5n3CO4)cc12 [Compound 134],,,8.40,8.54
"CNC(=O)c1c(-c2ccc(F)cc2)oc2cc(N(Cc3ccc(B(O)O)cc3)S(C)(=O)=O)c(-c3ccc4c(n3)-c3cc5c(F)cccc5n3CO4)cc12 [Compound 205, (4-((N-(5-(11-fluoro-6H-pyrido[2′,3′:5,6][1,3]oxazino[3,4-a]indol-2-yl)-2-(4-fluorophenyl)-3-(methylcarbamoyl)benzofuran-6-yl)methylsulfonamido)methyl)phenyl) boronic acid]",,,7.85,7.82
"CNC(=O)c1c(-c2ccc(F)cc2)oc2cc(C#N)c(-c3ccc4c(n3)-c3cc5c(F)cccc5n3CO4)cc12 [Compound 180, 6-cyano-5-(11-fluoro-6H-pyrido[2′,3′:5,6][1,3]oxazino[3,4-a]indol-2-yl)-2-(4-fluorophenyl)-N-methylbenzofuran-3-carboxamide]",,,8.52,8.28
CN(O)C(=O)c1c(-c2ccc(F)cc2)oc2cc(N(C)S(C)(=O)=O)c(-c3ccc4c(n3)-c3cc5c(F)cccc5n3CO4)cc12 [Compound 155],,,8.15,7.77
"CNC(=O)c1c(-c2ccc(F)cc2)oc2cc(N(C)S(C)(=O)=O)c(-c3ccc4c(c3)-c3nc5ccccn5c3CO4)cc12 [Compound 142, 5-(6H-chromeno[4′,3′:4,5]imidazo[1,2-a]pyridin-2-yl)-2-(4-fluorophenyl)-N-methyl-6-(N-methylmethylsulfonamido)benzofuran-3-carboxamide]",,,8.39,8.40
"CNC(=O)c1c(-c2ccc(F)cc2)oc2cc(N(C)S(C)(=O)=O)c(-c3ccc4c(n3)-c3cc5c(F)cccc5n3C(CCO)O4)cc12 (stereo not shown) [Compound 99, 5-(11-fluoro-6-(2-hydroxyethyl)-6H-pyrido[2′,3′:5,6][1,3]oxazino[3,4-a]indol-2-yl)-2-(4-fluorophenyl)-N-methyl-6-(N-methylmethylsulfonamido)benzofuran-3-carboxamide]",,,8.72,8.34
"CNC(=O)c1c(-c2ccc(F)cc2)oc2cc(N(C)S(C)(=O)=O)c(-c3ccc4c(n3)-c3cc5c(F)cccc5n3C(CCO)O4)cc12 (stereo not shown) [Compound 100, 5-(11-fluoro-6-(2-hydroxyethyl)-6H-pyrido[2′,3′:5,6][1,3]oxazino[3,4-a]indol-2-yl)-2-(4-fluorophenyl)-N-methyl-6-(N-methylmethylsulfonamido)benzofuran-3-carboxamide]",8.48,8.44,,
CNC(=O)c1c(-c2ccc(F)cc2)oc2cc(N(C)S(C)(=O)=O)c(-c3ccc4c(c3)-c3cc5ccccc5n3CC(NCCN3CCCC3)CO4)cc12 (stereo not shown) [Compound 84],,,7.59,7.80
